Experimental data taken from US10238738B2, “Methods of modulating immune system responses” (priority 2014, dated 2019).

Assays:
Assay type in all cases: cell-based, human
NF-κB response to HBP = assay: HBP internalization assay: NF-κB luciferase in 293T cells pre-treated with inhibitors; details: 80 μM Dynasore or 10 μM cytochalasin D 1 hr prior to stimulation, FIG. 3b
Description: (§1) 293T were maintained in DMEM supplemented with 10% FBS, 1% glutamax, and 1% penicillin streptomycin. Jurkat 1G5 cells contain a stably-integrated LTR-luciferase reporter gene (Aguilar-Cordova et al., 1994), and were maintained in RPMI supplemented with 10% FBS and 1% glutamax. THP-1 cells were maintained in RPMI supplemented with 10% FBS and 1% glutamax and differentiated to macrophages with 50 ng/ml PMA for 48 hr, followed by a 48 hr rest period prior to stimulation. To measure LTR-driven luciferase, 1G5 cells were lysed and luminescence determined using the Luciferase Assay kit (Promega) according to manufacturer's instructions. Results are expressed as fold change compared to untreated. 293T cells were transfected in 96 well plates with 90 ng ELAM firefly luciferase reporter plasmid (Chow et al., 1999) and 10 ng pRL-TK Renilla plasmid using TransiT LTI (Mirus). 18 hours later cells were treated for 6 hours and luciferase activity determined using the Dual-Glo Luciferase Assay System (Promega). Results are expressed as fold increase relative to transfected, mock treated cells following normalization to Renilla luciferase. […]

THP-1 macrophages = assay: Infection of THP-1 macrophages with serum-opsonized E. coli, IL-6 production; details: 10 μg/ml cytochalasin D for 30 min; FIG. 6a
Description: Neisseria strains were grown overnight on GC agar supplemented with IsovitaleX enrichment (BD Biosciences). E. coli and S. typhimurium were grown overnight on LB agar, S. pneumoniae was grown on Columbia blood agar containing 5% sheep blood, and H. influenzae, B. multivorans, L. monocytogenes, and S. aureus were grown on brain heart infusion (BHI) agar (BD Biosciences). Where culture supernatant was desired, overnight cultures were scraped into PBS, re-suspended in RPMI 1% Isovitalex at an OD600=0.2, grown for 6 hours and the spent medium filtered through a 0.22 μm filter. For heat-killed bacteria, overnight cultures were scraped into PBS and 1 OD600 unit was re-suspended in 100 μl PBS and heated to 65° C. for 1 hr, with the exception of B. multivorans which was heated to 85° C. Cell pellets were washed, re-suspended in 100 μl PBS, and 2 μl/well used as treatment. To generate lysates, cultures were treated as above and boiled for 15 minutes. […]
Relative expression was calculated using the 2^−ΔΔCT method following normalization of target gene abundance to GAPDH. Quantitative measurements of cytokines were performed using ELISA kits form R&D Systems (KC, IL-23, IFN-β) or BD Biosciences (IL-1β, IL-8, IL-6, IL-12p70, TNF-α). Nuclear extracts were prepared from Jurkat T cells and NF-κB subunit binding was determined using the TransAM® Transcription Factor ELISA (Active Motif). […]

NF-κB = NF-κB luciferase reporter assay in 293T cells
Description: as §1, with “luciferase. Digitonin permeabilization assays were done as described previously (Girardin et al., 2003) with the following modifications: 1G5 cells were stimulated with purified HBP supernatants, or 10 μg/ml flagellin (Invivogen) for 20 minutes at 4° C. in the absence or presence of 2 μg/ml digitonin (Sigma).” for “luciferase.”
293T were maintained in DMEM supplemented with 10% FBS, 1% glutamax, and 1% penicillin streptomycin. […] To measure LTR-driven luciferase, 1G5 cells were lysed and luminescence determined using the Luciferase Assay kit (Promega) according to manufacturers instructions. Results are expressed as fold change compared to untreated. […] 18 hours later cells were treated for 6 hours and luciferase activity determined using the Dual-Glo Luciferase Assay System (Promega). Results are expressed as fold increase relative to transfected, mock treated cells following normalization to Renilla luciferase.

[1] = system: HIV LTR-luciferase in Jurkat 1G5 cells; assay: LTR-driven luciferase in Jurkat 1G5 cells with reversible digitonin permeabilization; details: FIG. 3a
Description: as §1

O=C(N/N=C/c1ccc(O)c(O)c1)c1cc2ccccc2cc1O [Dynasore]
Effect of inhibitor on NF-κB response to HBP (NF-κB response to HBP): attenuated the NF-κB response to HBP

C=C1[C@@H](C)[C@H]2[C@H](Cc3ccccc3)NC(=O)[C@]23[C@H](OC(C)=O)/C=C/[C@@](C)(O)C(=O)[C@@H](C)C/C=C/[C@H]3[C@@H]1O [cytochalasin D]
Effect of pre-treatment on the higher IL-6 production induced by HBP-synthesizing E. coli (THP-1 macrophages): abrogated the effect
Effect of inhibitor on NF-κB response to HBP (NF-κB response to HBP): not

C[C@H](N)C(=O)N[C@H](CCC(=O)N[C@@H](CCC[C@@H](N)C(=O)O)C(=O)O)C(=O)O [m-TriDAP, reference compound]
NF-κB response of 293T cells to known Gram-negative PAMPs (NF-κB): unresponsive

flagellin
Luciferase activity after delivery into the cytosol [1]: remained constant
